This is an account of results in the OPERA property sets (Mansouri et al. 2018).

Regarding `CCCCOC(=O)CNC(=O)CCCCSc1[nH]cnc2ncnc1-2`, the logP is 1.39.
Next, `CCCCC(N)C(=O)O` (stereo unspecified): -1.53; `Cn1c(CO)cnc1[N+](=O)[O-]`: -0.35; `COc1cccc(C(C)=O)c1`: 1.84.
Next, `CN(C(=S)c1ccccc1)c1ccccc1`: 3.12.
With `O=C(O)Cn1cccc1` the figure was 0.7.
`O=[N+]([O-])c1ccccn1` gave a logP of 0.48.
With `O=C(O)Cc1ccc(Br)cc1` the figure was 2.31; with `O=C(NCc1ccccc1)c1ccco1`, 1.81; with `c1ccc(Oc2ccccn2)cc1`, 2.39.
In the case of `CNC(=O)Oc1ccc(Cl)c(Cl)c1`, the logP stood at 2.8.
The compound `NCCCCCC(=O)O` displayed a logP of -2.95.
With `Cc1cc(=O)cc(C)o1` the figure was 0.1; with `NC(Cc1ccc(O)c(O)c1)C(=O)OCc1cccc(C(F)(F)F)c1` (stereo unspecified), 2.29; with `OCc1ccccc1O`, 0.73.
Next, `CC(=O)c1ccccc1OCC(=O)O`: 1.25; `CC(Br)C(=O)O` (stereo unspecified): 0.92; `NC(=O)c1ccncc1`: -0.28.
Turning to `COC(=O)CC(=O)OC`, the logP was -0.05.
Next, `CC(=O)OC[C@H]1O[C@@H](n2ncc(=O)[nH]c2=O)[C@H](OC(C)=O)[C@@H]1OC(C)=O`: -0.2; `O=C1C=C(Cl)C(=O)c2ccccc21`: 2.29; `O=C(O)Cc1sc(-c2ccccc2)nc1-c1ccc(Cl)cc1`: 5.19.
Next, `CCc1cccnc1`: 1.66.
With `COc1cc2c(cc1OC)C13CCN4CC5CCOC6CC(=O)N2C1C6C5CC43` (stereo unspecified), the logP worked out at 0.84.
As to `CCC(=O)OCC(=O)C1(O)CCC2C3CCC4=CC(=O)CCC4(C)C3C(O)CC21C` (stereo unspecified), the logP turned out to be 2.8.
Next, `Oc1ccc(Cl)c2ccccc12`: 3.94; `COc1ccccc1NCCO`: 1.5.
For the compound `CC(=O)Nc1cccc(N(C)C)c1`, the logP is 1.29.
Next, `Cc1cccc(Cl)c1Nc1ccccc1CC(=O)O`: 4.37; `CCOC(=O)C(=Cc1cccc(OCC)c1)C(=O)OCC`: 3.39.
With `Clc1ccccc1Cl` the figure was 3.43.
In turn, `CCCCCCCOC(=O)C(C(=O)OCCCCCCC)=C1SCCS1` displayed a logP of 7.6.
Compound `O=Cc1cccs1` gave a logP of 1.02.
On to `O=S(=O)(O)c1ccc(O)c2ccccc12`, for which the logP was -0.44.
Next, `CN(C)c1cccc2ccccc12`: 3.46.
Next, `CC(=O)N[C@@H](CO)C(=O)N[C@@H](Cc1ccccc1)C(N)=O`: -0.79; `CCN(O)C(N)=O`: -0.1; `CN1CC[C@]23CCCC[C@H]2[C@H]1Cc1ccc(O)cc13`: 3.11.
The compound `CC(=O)NCC(=O)N[C@@H](CC(C)C)C(N)=O` came in with a logP of -0.78.
For `NNC(=O)c1ccc([N+](=O)[O-])cc1`, the log partition coefficient (logP) is 0.35.
With `CC(=O)OCC(=O)[C@@]12OC(C)(C)O[C@@H]1C[C@H]1[C@@H]3C[C@H](F)C4=CC(=O)C=C[C@]4(C)[C@@]3(F)[C@@H](O)C[C@@]12C` the figure was 3.19; with `CNc1ccccc1[N+](=O)[O-]`, 2.18; with `CN(C)P(=O)(N(C)C)N(C)C`, 0.28.
Next, `CNC(=O)OCc1c2c(n3c1C(OC(C)=O)CC3)C(=O)C=C(OC)C2=O` (stereo unspecified): 1.19; `CNCC(O)c1ccc(O)c(OC)c1` (stereo unspecified): -0.64; `Clc1c(Cl)c(Cl)c2ccccc2c1Cl`: 5.75.
With `CC(=O)C(C)(C)C` the figure was 1.2.
`CCN(CC)c1nc(C)cc(OP(=S)(OC)OC)n1` returned a logP of 4.2.
With `NCCCc1ccccc1` the figure was 1.83.
With `O=C(O)Cc1ccc(F)cc1` the figure was 1.55.
With `CCN(CC)CCNC(=O)c1cc(C#N)c(N)cc1OC` the figure was 1.94; with `CN(C)C(=O)Nc1cccc(N)c1`, -0.1; with `CC(C)=C1C(=O)OC2CC(C)C3C=CC(=O)C3(C)C(O)C12` (stereo unspecified), 1.47.
Regarding `CNC(=O)Oc1ccccc1OC(C)C`, the logP is 1.52.
With `Cc1ccc(S(I)=C(N(C)C)N(C)C)c([N+](=O)[O-])c1` (stereo unspecified) the figure was 0.23.
On to `Cc1cccc2ccccc12`, for which the logP was 3.87.
With `CC(=O)C=Cc1ccco1` the figure was 1.35; with `OCc1cccc(O)c1`, 0.49.
Next, `O=c1[nH]c(=O)n(C2CCCO2)cc1F` (stereo unspecified): -0.27; `NC(=O)c1cccc(N)c1`: -0.33; `NC(=O)c1ccc([N+](=O)[O-])cc1`: 0.82.
In turn, `S=C=NC(c1ccccc1)(c1ccccc1)c1ccccc1` showed a logP of 7.02.
`Nc1ccc2ccccc2c1S(=O)(=O)O` returned a logP of -1.16.
With `CCCOCc1ccccc1NC(=O)OCCN1CCCCC1`, the logP came to 3.34.
For `C[C@]12CCC(=O)C=C1CC[C@@H]1[C@@H]2CC[C@]2(C)C(=O)CC[C@@H]12`, the logP was 2.75.
Next, `CCOC(=O)n1cc(F)c(=O)[nH]c1=O`: -0.17; `CN(C(=O)c1ccccc1)c1ccccc1`: 2.36.
Next, `Clc1cc(Cl)c(Cl)cc1Cl`: 4.64; `Oc1cccc(F)c1`: 1.93; `O=C[C@H](O)[C@@H](O)[C@H](O)[C@H](O)C(=O)O`: -2.57.
Compound `NCCCc1ccncc1` displayed a logP of 0.4.
In turn, `Cc1cnc(C)cn1` gave a logP of 0.63.
Next, `O=C(OCC1CCC(n2cnc3c(=O)[nH]cnc32)O1)c1ccccc1` (stereo unspecified): 0.66; `c1ccc(N(c2ccccc2)c2ccccc2)cc1`: 5.74; `C[Se]c1ccccc1`: 2.87.
With `CCOCC1CO1` (stereo unspecified) the figure was 0.36.
With `O=C(CCBr)N1CCN(C(=O)CCBr)CC1` the figure was 0.42; with `Nc1cccc(F)c1`, 1.3.
As for `C#CCN(CC#C)CC#C`, the log partition coefficient (logP) was found to be 1.27.
Consider `O=C(NN1CCCCCC1)NS(=O)(=O)c1ccc(Cl)cc1`, for which the logP was 1.64.
With `CN(C)C(=O)C(C(=O)N(C)C)C(=O)N(C)C` the figure was -3.09; with `CCCCOc1cccc(C=C(C(=O)OCC)C(=O)OCC)c1`, 4.03.
As to `Cc1ccccc1OC(=O)N(C)C`, the logP was found to be 1.86.
Next, `CC(C)c1ccc(OC(=O)c2ccc(N)cc2O)cc1`: 4.12; `CC(C)C(=O)OCC1CCC(n2cnc3c(=O)[nH]cnc32)O1` (stereo unspecified): 0.02; `CCCOc1cccc(C=C(C(=O)OCC)C(=O)OCC)c1`: 4.
With `O=[N+]([O-])C=Cc1cccc([N+](=O)[O-])c1` the figure was 1.82.
With `Nc1ccc(-c2nc([N+](=O)[O-])c[nH]2)cc1` the figure was 0.86.
For the compound `CCCc1ccc(S(N)(=O)=O)cc1`, the logP was 1.64.
With `Cc1nc2ccccc2[nH]1` the figure was 1.43.
Next, `NC(=S)N1CCCCC1`: 0.73; `CCCCOC(=O)c1ccc(C(=O)OCCCC)cc1`: 5.53.
`FC(Cl)(Cl)Cl` showed a logP of 2.53.
`CCCCOCCOCCO` came in with a logP of 0.56.
Turning to `c1ccc(-c2cc3ccccn3c2)cc1`, the logP was 4.29.
Next, `COCCOC`: -0.21; `CC(=O)c1csc2ccccc12`: 2.78.
With `Cc1cc2c(cc1C)C(=O)C=CC2=O` the figure was 2.49; with `CC1CC(C)CN(N=O)C1` (stereo unspecified), 1.53.
Next, `N#CCC(=O)c1ccccc1`: 0.97; `NCc1ccco1`: 0.37.
As to `ClC(Cl)(Cl)Sc1ccccc1`, the logP turned out to be 3.78.
Next, `COC(=O)C(Cc1ccccc1)NC(C)=O` (stereo unspecified): 0.92; `CNC(=O)Oc1cc(C)c(C)c(C)c1`: 2.66.
`Clc1ccc(-c2ccccc2Cl)c(Cl)c1` came in with a logP of 5.76.
With `O=[N+]([O-])c1ncn(CC(O)CCl)n1` (stereo unspecified) the figure was 0.05.
`CCCN(CCC)N=O` yielded a logP of 1.36.
Compound `O=C1c2ccccc2C(=O)c2ccccc21` gave a logP of 3.39.
With `CCCC1(CC)C(=O)NC(=O)NC1=O` the figure was 0.66; with `Oc1cccc2c(Cl)ccnc12`, 2.67; with `CC(=O)OCc1ccc(C)cc1`, 2.44.
As to `CN1CCC(CN2c3ccccc3Sc3ccccc32)C1` (stereo unspecified), the logP is 5.23.
Next, `CCCCC1CC(C(=O)NC(C(C)Cl)C2OC(SC)C(O)C(O)C2O)N(CC)C1` (stereo unspecified): 3.21; `O=[N+]([O-])CCO`: -0.42; `O=C(O)COc1ccccc1F`: 1.39.
With `Cc1n[nH]c(C(=O)N(C)C2CCCCC2)c1[N+](=O)[O-]` the figure was 1.68.
Next, `CNC(=O)ON=CC(C)(C)SC`: 1.13.
In turn, `Oc1ccc2cccc(O)c2c1` registered a log partition coefficient (logP) of 1.94.
On to `C=C(C)C(=O)OCC(C)O` (stereo unspecified), for which the logP was determined as 0.97.
With `NC(CC(=O)O)c1ccccc1` (stereo unspecified) the figure was -1.4; with `C1=CCCC=CCC1`, 3.16.
Next, `CC=C(C)C1(C)CC(=O)C(C(CCC)=NOCC)C(=O)O1` (stereo unspecified): 3.4; `ClC=C(Cl)Cl`: 2.42.
`C[C@@H]1C[C@@]2(C)[C@@H](CC[C@@H]3[C@@H]2CC[C@]2(C)[C@@H](O)CC[C@@H]32)CC1=O` returned a logP of 3.99.
Take `[N-]=[N+]=NC1CC(n2cnc3c(=O)[nH]c(N)nc32)OC1CO` (stereo unspecified): the logP is -0.33.
With `CC(=O)c1ccc(C(=O)OCCN(C)C)cc1` the figure was 1.57.
Next, `CCCCBr`: 2.75; `O=[As](O)(O)c1ccccc1`: 0.06; `C1CCOC1`: 0.46.
Turning to `COc1ccc(C(N)=O)cc1`, the logP is 0.86.
Next, `CC(Oc1ccccc1)C(=O)N[C@@H]1C(=O)N2[C@@H]1SC(C)(C)[C@@H]2C(=O)O` (stereo partly specified): 2.2; `CCCc1ccncc1`: 2.1; `CC1N=C(c2ccccc2)c2cc(Cl)ccc2NC1=O` (stereo unspecified): 3.33.
Next, `O=C(O)c1ccccc1C(=O)O`: 0.73.
Next, `CC(=S)Nc1ccccc1`: 1.71; `NC(=O)c1ccccc1O`: 1.28.
